Tests used:
Cannabinoid receptor 1 = Cannabinoid receptor 1 (Homo sapiens, UniProt P21554)
[1] = target: T1, Amine oxidase [flavin-containing] A (Homo sapiens, UniProt P21397); format: functional
T1 sequence (P21397 whole entry): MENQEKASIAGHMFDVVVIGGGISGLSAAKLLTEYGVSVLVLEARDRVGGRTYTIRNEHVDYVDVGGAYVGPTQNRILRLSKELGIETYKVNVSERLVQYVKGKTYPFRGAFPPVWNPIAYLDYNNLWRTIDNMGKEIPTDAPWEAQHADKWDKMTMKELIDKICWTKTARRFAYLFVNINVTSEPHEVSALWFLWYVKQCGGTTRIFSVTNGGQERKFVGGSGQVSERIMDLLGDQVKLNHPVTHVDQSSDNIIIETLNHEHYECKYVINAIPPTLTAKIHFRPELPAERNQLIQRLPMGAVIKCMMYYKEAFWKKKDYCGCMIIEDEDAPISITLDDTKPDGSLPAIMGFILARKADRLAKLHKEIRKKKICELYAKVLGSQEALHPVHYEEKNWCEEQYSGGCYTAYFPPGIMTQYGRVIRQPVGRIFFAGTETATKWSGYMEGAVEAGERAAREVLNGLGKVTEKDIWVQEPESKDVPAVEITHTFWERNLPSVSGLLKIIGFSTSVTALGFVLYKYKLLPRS

[2] = target: T2, Muscarinic acetylcholine receptor M1 (Homo sapiens, UniProt P11229); format: functional, cell-based
T2 sequence (P11229 whole entry): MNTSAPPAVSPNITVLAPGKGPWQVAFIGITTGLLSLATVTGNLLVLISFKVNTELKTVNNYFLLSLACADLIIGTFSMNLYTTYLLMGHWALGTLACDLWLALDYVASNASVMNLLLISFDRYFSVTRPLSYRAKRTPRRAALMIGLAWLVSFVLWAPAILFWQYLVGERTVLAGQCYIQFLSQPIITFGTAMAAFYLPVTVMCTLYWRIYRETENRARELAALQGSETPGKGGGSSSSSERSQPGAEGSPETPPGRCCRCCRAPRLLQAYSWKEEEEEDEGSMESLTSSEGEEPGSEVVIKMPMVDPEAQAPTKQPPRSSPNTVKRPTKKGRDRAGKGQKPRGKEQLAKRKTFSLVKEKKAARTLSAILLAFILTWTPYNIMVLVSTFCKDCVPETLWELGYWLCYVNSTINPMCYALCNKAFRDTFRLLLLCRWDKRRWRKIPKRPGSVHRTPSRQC

[3] = target: Beta-1 adrenergic receptor (Homo sapiens, UniProt P08588); format: functional
Beta-1 adrenergic receptor, sequence (P08588 whole entry): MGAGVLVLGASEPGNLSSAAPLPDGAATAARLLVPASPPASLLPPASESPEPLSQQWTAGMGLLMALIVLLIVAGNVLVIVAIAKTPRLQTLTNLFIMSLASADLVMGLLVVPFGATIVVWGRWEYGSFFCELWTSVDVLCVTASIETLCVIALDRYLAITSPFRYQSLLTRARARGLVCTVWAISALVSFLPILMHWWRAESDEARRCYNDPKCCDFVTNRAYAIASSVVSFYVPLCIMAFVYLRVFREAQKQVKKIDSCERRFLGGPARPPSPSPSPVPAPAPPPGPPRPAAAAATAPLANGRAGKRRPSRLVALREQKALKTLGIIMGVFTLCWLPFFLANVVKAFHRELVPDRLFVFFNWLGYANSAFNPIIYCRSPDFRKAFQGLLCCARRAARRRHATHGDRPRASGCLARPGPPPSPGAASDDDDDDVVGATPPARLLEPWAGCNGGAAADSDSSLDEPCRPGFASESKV

[4] = target: Sodium-dependent noradrenaline transporter (Homo sapiens, UniProt P23975)
Sodium-dependent noradrenaline transporter, sequence (P23975 whole entry): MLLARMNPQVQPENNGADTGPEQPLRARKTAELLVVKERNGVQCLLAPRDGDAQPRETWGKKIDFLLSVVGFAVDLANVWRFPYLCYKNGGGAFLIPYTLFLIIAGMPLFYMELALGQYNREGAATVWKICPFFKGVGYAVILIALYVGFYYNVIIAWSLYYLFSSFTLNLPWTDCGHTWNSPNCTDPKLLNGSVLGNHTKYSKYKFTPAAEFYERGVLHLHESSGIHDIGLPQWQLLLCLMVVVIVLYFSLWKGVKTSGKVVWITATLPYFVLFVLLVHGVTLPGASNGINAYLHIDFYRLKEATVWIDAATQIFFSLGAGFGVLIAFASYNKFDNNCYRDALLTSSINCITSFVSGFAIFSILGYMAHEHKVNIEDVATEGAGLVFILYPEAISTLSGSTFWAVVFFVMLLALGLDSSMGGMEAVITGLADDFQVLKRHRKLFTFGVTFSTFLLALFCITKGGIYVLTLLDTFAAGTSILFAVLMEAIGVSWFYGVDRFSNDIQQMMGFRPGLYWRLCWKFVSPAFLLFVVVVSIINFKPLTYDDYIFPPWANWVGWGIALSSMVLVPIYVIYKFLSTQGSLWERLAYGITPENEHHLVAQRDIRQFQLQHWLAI

[5] = target: Sodium-dependent dopamine transporter (Homo sapiens, UniProt Q01959)
Sodium-dependent dopamine transporter, sequence (Q01959 whole entry): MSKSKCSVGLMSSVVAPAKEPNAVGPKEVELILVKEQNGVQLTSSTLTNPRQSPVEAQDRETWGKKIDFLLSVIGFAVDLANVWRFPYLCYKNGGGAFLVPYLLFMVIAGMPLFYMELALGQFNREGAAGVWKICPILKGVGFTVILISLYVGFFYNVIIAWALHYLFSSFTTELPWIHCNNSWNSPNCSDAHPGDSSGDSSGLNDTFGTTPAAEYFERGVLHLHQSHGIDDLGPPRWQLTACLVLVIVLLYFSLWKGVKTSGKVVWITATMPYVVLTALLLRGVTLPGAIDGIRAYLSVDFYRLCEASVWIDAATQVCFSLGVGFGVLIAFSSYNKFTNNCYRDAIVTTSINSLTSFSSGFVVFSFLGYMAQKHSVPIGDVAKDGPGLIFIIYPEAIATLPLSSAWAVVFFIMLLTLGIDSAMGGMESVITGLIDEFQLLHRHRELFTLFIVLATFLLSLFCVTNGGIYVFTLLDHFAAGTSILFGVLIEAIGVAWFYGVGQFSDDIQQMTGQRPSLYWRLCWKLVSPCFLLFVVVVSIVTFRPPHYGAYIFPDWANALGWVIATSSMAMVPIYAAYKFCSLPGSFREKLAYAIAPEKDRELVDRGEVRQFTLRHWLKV

D(3) dopamine receptor = D(3) dopamine receptor (Homo sapiens, UniProt P35462)
D(3) dopamine receptor, sequence (P35462 whole entry): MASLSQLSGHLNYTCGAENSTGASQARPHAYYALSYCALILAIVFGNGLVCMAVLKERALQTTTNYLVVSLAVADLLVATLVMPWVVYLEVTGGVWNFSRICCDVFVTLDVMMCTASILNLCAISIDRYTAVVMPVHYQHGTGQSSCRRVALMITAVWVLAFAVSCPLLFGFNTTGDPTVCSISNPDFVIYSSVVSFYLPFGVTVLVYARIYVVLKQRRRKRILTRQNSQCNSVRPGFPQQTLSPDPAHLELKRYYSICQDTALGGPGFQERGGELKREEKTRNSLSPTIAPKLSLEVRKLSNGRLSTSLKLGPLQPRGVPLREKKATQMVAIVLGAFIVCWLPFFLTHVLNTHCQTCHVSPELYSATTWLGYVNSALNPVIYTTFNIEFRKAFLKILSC

Thromboxane A2 receptor = target: T3, Thromboxane A2 receptor (Homo sapiens, UniProt P21731); format: functional, cell-based
T3 sequence (P21731 whole entry): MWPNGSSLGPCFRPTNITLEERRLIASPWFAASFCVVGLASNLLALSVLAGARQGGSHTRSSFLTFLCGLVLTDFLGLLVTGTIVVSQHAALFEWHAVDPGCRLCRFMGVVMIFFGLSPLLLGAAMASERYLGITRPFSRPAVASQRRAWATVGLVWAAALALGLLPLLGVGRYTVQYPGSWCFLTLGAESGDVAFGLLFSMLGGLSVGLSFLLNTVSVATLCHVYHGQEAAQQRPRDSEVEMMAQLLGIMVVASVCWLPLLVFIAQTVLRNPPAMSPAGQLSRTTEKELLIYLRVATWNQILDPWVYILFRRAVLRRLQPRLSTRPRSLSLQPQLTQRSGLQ

[6] = target: Muscarinic acetylcholine receptor M3 (Homo sapiens, UniProt P20309)
Muscarinic acetylcholine receptor M3, sequence (P20309 whole entry): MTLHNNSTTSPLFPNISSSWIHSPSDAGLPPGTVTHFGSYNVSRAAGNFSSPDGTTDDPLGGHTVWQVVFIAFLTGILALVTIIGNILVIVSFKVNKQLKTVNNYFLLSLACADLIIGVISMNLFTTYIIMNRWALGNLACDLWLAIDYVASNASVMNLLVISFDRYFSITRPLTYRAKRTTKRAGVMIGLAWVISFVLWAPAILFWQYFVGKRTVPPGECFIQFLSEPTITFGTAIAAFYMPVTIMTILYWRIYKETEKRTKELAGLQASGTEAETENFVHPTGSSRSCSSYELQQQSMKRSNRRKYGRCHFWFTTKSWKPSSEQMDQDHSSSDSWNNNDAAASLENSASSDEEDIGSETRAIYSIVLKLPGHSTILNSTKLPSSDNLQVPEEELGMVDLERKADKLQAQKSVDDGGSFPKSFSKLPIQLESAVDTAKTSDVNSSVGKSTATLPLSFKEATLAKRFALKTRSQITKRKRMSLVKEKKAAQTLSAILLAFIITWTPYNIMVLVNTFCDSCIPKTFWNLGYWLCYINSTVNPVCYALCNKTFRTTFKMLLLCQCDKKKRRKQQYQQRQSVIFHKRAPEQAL

Progesterone receptor = target: T4, Progesterone receptor (Homo sapiens, UniProt P06401); format: functional
T4 sequence (P06401 whole entry): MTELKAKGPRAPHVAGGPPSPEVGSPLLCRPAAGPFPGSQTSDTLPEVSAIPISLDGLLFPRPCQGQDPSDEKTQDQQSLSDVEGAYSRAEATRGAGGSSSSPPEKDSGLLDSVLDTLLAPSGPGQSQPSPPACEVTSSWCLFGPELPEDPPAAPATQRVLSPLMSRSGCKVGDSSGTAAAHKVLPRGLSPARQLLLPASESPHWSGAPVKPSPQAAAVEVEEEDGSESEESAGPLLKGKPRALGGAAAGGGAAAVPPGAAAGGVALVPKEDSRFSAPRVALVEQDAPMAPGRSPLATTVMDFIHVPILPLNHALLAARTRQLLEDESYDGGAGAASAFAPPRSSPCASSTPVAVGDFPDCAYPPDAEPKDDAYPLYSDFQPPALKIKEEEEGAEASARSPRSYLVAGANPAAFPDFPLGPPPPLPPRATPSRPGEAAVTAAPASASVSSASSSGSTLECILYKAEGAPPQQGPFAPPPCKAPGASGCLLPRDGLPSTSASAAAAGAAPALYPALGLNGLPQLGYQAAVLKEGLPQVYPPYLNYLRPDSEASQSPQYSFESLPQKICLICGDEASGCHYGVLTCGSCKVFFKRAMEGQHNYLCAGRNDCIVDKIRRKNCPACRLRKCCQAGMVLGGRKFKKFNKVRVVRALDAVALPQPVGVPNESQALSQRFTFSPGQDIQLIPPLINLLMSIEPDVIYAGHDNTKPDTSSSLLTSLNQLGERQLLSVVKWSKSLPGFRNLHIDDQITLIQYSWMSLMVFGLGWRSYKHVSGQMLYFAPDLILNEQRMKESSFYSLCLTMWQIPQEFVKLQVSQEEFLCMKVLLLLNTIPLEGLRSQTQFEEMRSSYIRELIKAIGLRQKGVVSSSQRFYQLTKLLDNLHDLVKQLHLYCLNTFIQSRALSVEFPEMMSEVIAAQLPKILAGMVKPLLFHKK
Further: assay procedure not described here.

Cannabinoid receptor 1, sequence (P21554 whole entry): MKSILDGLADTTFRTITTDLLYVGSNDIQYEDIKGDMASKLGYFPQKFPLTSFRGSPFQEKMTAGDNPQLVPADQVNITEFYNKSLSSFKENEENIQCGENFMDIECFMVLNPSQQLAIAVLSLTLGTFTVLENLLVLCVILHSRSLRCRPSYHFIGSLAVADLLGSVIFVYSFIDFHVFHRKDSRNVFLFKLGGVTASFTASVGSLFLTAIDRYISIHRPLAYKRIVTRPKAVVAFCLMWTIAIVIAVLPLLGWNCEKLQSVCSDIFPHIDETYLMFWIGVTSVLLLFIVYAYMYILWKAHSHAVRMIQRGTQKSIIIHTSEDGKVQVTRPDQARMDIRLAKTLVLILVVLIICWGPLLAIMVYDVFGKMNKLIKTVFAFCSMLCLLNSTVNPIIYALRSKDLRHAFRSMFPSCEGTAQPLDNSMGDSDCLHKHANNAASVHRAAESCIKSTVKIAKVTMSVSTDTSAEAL

| SMILES | AC50 (Cannabinoid receptor 1) [µM] | AC50 [1] [µM] | AC50 [2] [µM] | AC50 [3] [µM] | AC50 [4] [µM] | AC50 [5] [µM] | AC50 (D(3) dopamine receptor) [µM] | AC50 (Thromboxane A2 receptor) [µM] | AC50 [6] [µM] | AC50 (Progesterone receptor) [µM] |
| --- | --- | --- | --- | --- | --- | --- | --- | --- | --- | --- |
| CN1CCN(C2=Nc3ccccc3Oc3ccc(Cl)cc32)CC1 [LOXAPINE] | > 10 | > 30 | > 30 | > 10 | 0.482 | 23.3 | 0.019 | > 30 | – | – |
| CCC(=O)O[C@]1(C(=O)SCF)[C@H](C)C[C@H]2[C@@H]3C[C@H](F)C4=CC(=O)C=C[C@]4(C)[C@@]3(F)[C@@H](O)C[C@@]21C [FLUTICASONE PROPIONATE] | > 30 | > 30 | > 30 | > 30 | > 30 | > 30 | > 30 | > 30 | > 30 | – |
| CC[C@@H]([C@H](C)O)n1ncn(-c2ccc(N3CCN(c4ccc(OC[C@@H]5CO[C@@](Cn6cncn6)(c6ccc(F)cc6F)C5)cc4)CC3)cc2)c1=O [POSACONAZOLE] | – | > 30 | > 30 | – | > 30 | > 30 | > 30 | > 30 | – | > 30 |
| CC(C)N(CCNC(=O)CN1CCCC1=O)C(C)C | – | > 30 | > 30 | – | > 30 | > 30 | > 30 | > 30 | – | – |
| Cc1cc(NC(=O)C2=C(O)c3ccccc3S(=O)(=O)N2C)no1 [ISOXICAM] | – | > 30 | > 30 | – | > 30 | > 30 | > 30 | > 30 | – | – |
| CCN(CC)C(=S)S [DITIOCARB] | – | > 30 | > 30 | – | > 30 | > 30 | > 30 | > 30 | – | – |
| NC(=O)OCC(O)COc1ccc(Cl)cc1 (stereo not given) [CHLORPHENESIN CARBAMATE] | – | > 30 | > 30 | – | > 30 | > 30 | > 30 | > 30 | – | – |
| CN(C)CCOC(c1ccccc1)c1ccc(Br)cc1 (stereo not given) [BROMODIPHENHYDRAMINE] | – | > 30 | > 30 | – | 4.22 | 0.757 | 2.68 | > 30 | – | – |
| CCC(=O)O[C@]1(C(=O)CCl)[C@@H](C)C[C@H]2[C@@H]3C[C@H](F)C4=CC(=O)C=C[C@]4(C)[C@@]3(F)[C@@H](O)C[C@@]21C [HALOBETASOL PROPIONATE] | – | > 30 | > 30 | – | > 30 | > 30 | > 30 | > 30 | – | – |
